*1 amine or outer side, *2 acyl side, *3 side chain or, on linkers, in order; H or OH if unused. Where a SMILES comes first, the peptide text is derived from it. Side-chain parts run from the residue outwards. [ ]: non-standard residue; d: D form. The star is where a group is joined. C20 diacid = O=C(O)CCCCCCCCCCCCCCCCCCC(=O)*; C18 diacid = O=C(O)CCCCCCCCCCCCCCCCC(=O)*; C16 diacid = O=C(O)CCCCCCCCCCCCCCC(=O)*; γGlu = O=C(O)[C@H](CCC(=O)[*:2])N[*:1]; C14 diacid = O=C(O)CCCCCCCCCCCCC(=O)*; NMeI = CC[C@H](C)[C@H](NC)C(=O)O; Ac5c = NC1(C(=O)O)CCCC1; AEEA = NCCOCCOCC(=O)O; Aib = CC(C)(N)C(=O)O
Tests used:
[1] = target: T1, human CRF2a receptor (Homo sapiens, UniProt Q13324); test: Activity at human CRF2a receptor, cAMP functional assay in TeloHEAC cells; format: cell-based; settings: TeloHEAC cells stably expressing human CRF2a receptor, relative to urocortin 2 (100 nM = 100%)
T1 construct: expressed in transfected cells; host or cells: TeloHEAC cells
T1 sequence (Q13324 1-411): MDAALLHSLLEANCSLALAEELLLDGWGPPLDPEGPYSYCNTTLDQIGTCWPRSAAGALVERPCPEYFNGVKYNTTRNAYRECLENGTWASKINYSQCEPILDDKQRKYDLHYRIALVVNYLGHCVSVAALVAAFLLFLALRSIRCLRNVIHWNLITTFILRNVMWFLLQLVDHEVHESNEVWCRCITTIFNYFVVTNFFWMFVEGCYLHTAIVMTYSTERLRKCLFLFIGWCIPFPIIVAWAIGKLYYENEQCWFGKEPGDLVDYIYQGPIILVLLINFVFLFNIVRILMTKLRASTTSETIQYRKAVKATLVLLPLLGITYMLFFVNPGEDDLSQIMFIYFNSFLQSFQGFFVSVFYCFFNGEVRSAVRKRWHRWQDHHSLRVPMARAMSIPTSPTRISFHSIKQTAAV
Summary of the method: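 TeloHEAC cells stably expressing human CRF2a (10000 cells/well) were treated with 16-point 1:2 compound dilutions in HBSS/20 mM HEPES with IBMX for 30 min at 37° C. cAMP was read by HTRF (665/620 nm ratio). EC50 was the concentration giving 50% activation, with 100 nM urocortin 2 set as 100%.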

[2] = target: T2, CFR1R receptor (Homo sapiens, UniProt P34998); test: Activity at anti-target CFR1R receptor, cAMP assay in CRF1R-overexpression CHO-K1 cells; format: cell-based; settings: 100% = Sauvagine at 100 nM; for EC50: cAMP
T2 construct: host or cells: CHO-K1 (clone 2)
T2 sequence (P34998 24-415): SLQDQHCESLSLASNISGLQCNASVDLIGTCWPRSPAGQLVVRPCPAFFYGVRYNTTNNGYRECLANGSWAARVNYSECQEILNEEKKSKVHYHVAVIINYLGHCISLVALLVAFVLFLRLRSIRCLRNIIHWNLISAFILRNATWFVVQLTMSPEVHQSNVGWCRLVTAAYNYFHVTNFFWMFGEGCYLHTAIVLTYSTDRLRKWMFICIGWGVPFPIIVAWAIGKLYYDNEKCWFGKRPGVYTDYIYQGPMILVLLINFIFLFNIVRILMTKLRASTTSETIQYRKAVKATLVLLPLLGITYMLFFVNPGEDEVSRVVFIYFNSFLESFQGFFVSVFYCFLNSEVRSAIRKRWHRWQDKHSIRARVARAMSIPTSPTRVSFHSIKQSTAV
Summary of the method: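 Clone 2 cells were cultured in F12 (Hams)/10% FBS/400 μg/ml G418 at 37° C./5% CO2, frozen in medium with 10% DMSO, and thawed vials used. The protocol followed the TeloHAEC procedure, with 4000 cells/well final and Sauvagine at 100 nM defining 100% activation.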

| SMILES | EC50 [1] [nM] | Emax (% I) [2] [% I] | EC50 [2] [nM] |
| --- | --- | --- | --- |
| CC[C@H](C)[C@H](NC(C)=O)C(=O)N[C@H](C(=O)N[C@@H](CC(C)C)C(=O)N[C@@H](CO)C(=O)N[C@@H](CC(C)C)C(=O)N[C@@H](CC(=O)O)C(=O)N[C@@H](C(=O)N1CCC[C@H]1C(=O)N[C@H](C(=O)N[C@@H](CCCCN)C(=O)N[C@@H](CC(C)C)C(=O)N[C@@H](CCCCNC(=O)CC[C@H](NC(=O)CCCCCCCCCCCCCCCCCCC(=O)O)C(=O)O)C(=O)N[C@@H](CCCCN)C(=O)N[C@H](C(=O)N[C@@H](CC(C)C)C(=O)N[C@@H](CC(C)C)C(=O)N[C@@H](CCC(=O)O)C(=O)N[C@@H](CCC(N)=O)C(=O)N[C@@H](CCC(=O)O)C(=O)N[C@@H](C)C(=O)N[C@@H](CCC(N)=O)C(=O)N[C@@H](CCCCN)C(=O)N[C@@H](CCCCN)C(=O)N[C@@H](CCC(N)=O)C(=O)N[C@@H](CCCNC(=N)N)C(=O)N[C@@H](CCC(=O)O)C(=O)N[C@@H](CCC(N)=O)C(=O)N[C@@H](C)C(=O)N[C@@H](CCC(=O)O)C(=O)N[C@H](C(=O)N[C@@H](CC(N)=O)C(=O)NC(C)(C)C(=O)N[C@@H](CCC(N)=O)C(=O)N[C@H](C(=O)N[C@@H](CC(C)C)C(=O)N[C@@H](C)C(=O)N[C@@H](CCC(N)=O)C(=O)N[C@H](C(N)=O)C(C)C)[C@@H](C)CC)[C@@H](C)O)[C@@H](C)CC)[C@@H](C)CC)C(C)C)C(C)C [compound 211] (Ac-IVLSLD[dV]PIKLK([γGlu-C20 diacid])KILLEQEAQKKQREQAETN[Aib]QILAQV-NH2) | 0.15 | 73 | – |
| CC[C@H](C)[C@H](NC)C(=O)N[C@H](C(=O)N[C@@H](CC(C)C)C(=O)N[C@@H](CO)C(=O)N[C@@H](CC(C)C)C(=O)N[C@@H](CC(=O)O)C(=O)N[C@@H](C(=O)N1CCC[C@H]1C(=O)N[C@H](C(=O)N[C@@H](CCCCN)C(=O)N[C@@H](CC(C)C)C(=O)N[C@@H](CCCCNC(=O)CC[C@H](NC(=O)CCCCCCCCCCCCCCCCCCC(=O)O)C(=O)O)C(=O)N[C@@H](CCCCN)C(=O)N[C@H](C(=O)N[C@@H](CC(C)C)C(=O)N[C@@H](CC(C)C)C(=O)N[C@@H](CCC(=O)O)C(=O)N[C@@H](CCC(N)=O)C(=O)N[C@@H](CCC(=O)O)C(=O)N[C@@H](C)C(=O)N[C@@H](CCC(N)=O)C(=O)N[C@@H](CCCCN)C(=O)N[C@@H](CCCCN)C(=O)N[C@@H](CCC(N)=O)C(=O)N[C@@H](CCCNC(=N)N)C(=O)N[C@@H](CCC(=O)O)C(=O)N[C@@H](CCC(N)=O)C(=O)N[C@@H](C)C(=O)N[C@@H](CCC(=O)O)C(=O)N[C@H](C(=O)N[C@@H](CC(N)=O)C(=O)NC(C)(C)C(=O)N[C@@H](CCC(N)=O)C(=O)N[C@H](C(=O)N[C@@H](CC(C)C)C(=O)N[C@@H](C)C(=O)N[C@@H](CCC(N)=O)C(=O)N[C@H](C(N)=O)C(C)C)[C@@H](C)CC)[C@@H](C)O)[C@@H](C)CC)[C@@H](C)CC)C(C)C)C(C)C [compound 216] (H-[NMeI]VLSLD[dV]PIKLK([γGlu-C20 diacid])KILLEQEAQKKQREQAETN[Aib]QILAQV-NH2) | 0.05 | 61 | – |
| CC[C@H](C)[C@H](NC)C(=O)N[C@H](C(=O)N[C@@H](CC(C)C)C(=O)N[C@@H](CO)C(=O)N[C@@H](CC(C)C)C(=O)N[C@@H](CC(=O)O)C(=O)N[C@@H](C(=O)N1CCC[C@H]1C(=O)N[C@H](C(=O)N[C@@H](CCCCN)C(=O)N[C@@H](CC(C)C)C(=O)N[C@@H](CCCCNC(=O)COCCOCCNC(=O)COCCOCCNC(=O)CC[C@H](NC(=O)CCCCCCCCCCCCC(=O)O)C(=O)O)C(=O)N[C@@H](CCCCN)C(=O)N[C@H](C(=O)N[C@@H](CC(C)C)C(=O)N[C@@H](CC(C)C)C(=O)N[C@@H](CCC(=O)O)C(=O)N[C@@H](CCC(N)=O)C(=O)N[C@@H](CCC(=O)O)C(=O)N[C@@H](CCCCN)C(=O)N[C@@H](CCC(N)=O)C(=O)N[C@@H](CCCCN)C(=O)N[C@@H](CCCCN)C(=O)N[C@@H](CCC(N)=O)C(=O)N[C@@H](CCCNC(=N)N)C(=O)N[C@@H](CCC(=O)O)C(=O)N[C@@H](CCC(N)=O)C(=O)N[C@@H](C)C(=O)N[C@@H](CCC(=O)O)C(=O)N[C@H](C(=O)N[C@@H](CC(N)=O)C(=O)NC(C)(C)C(=O)N[C@@H](CCC(N)=O)C(=O)N[C@H](C(=O)N[C@@H](CC(C)C)C(=O)N[C@@H](C)C(=O)N[C@@H](CCC(N)=O)C(=O)N[C@H](C(N)=O)C(C)C)[C@@H](C)CC)[C@@H](C)O)[C@@H](C)CC)[C@@H](C)CC)C(C)C)C(C)C [compound 178] (H-[NMeI]VLSLD[dV]PIKLK([AEEA-AEEA-γGlu-C14 diacid])KILLEQEKQKKQREQAETN[Aib]QILAQV-NH2) | 6.5 | 1 | > 250 |
| CC[C@H](C)[C@H](NC(C)=O)C(=O)N[C@H](C(=O)N[C@@H](CC(C)C)C(=O)N[C@@H](CO)C(=O)N[C@@H](CC(C)C)C(=O)N[C@@H](CC(=O)O)C(=O)N[C@@H](C(=O)N1CCC[C@H]1C(=O)N[C@H](C(=O)N[C@@H](CCCCN)C(=O)N[C@@H](CC(C)C)C(=O)N[C@@H](CCCCNC(=O)CC[C@H](NC(=O)CCCCCCCCCCCCCCC(=O)O)C(=O)O)C(=O)N[C@@H](CCCCN)C(=O)N[C@H](C(=O)N[C@@H](CC(C)C)C(=O)N[C@@H](CC(C)C)C(=O)N[C@@H](CCC(=O)O)C(=O)N[C@@H](CCC(N)=O)C(=O)N[C@@H](CCC(=O)O)C(=O)N[C@@H](CCCCN)C(=O)N[C@@H](CCC(N)=O)C(=O)N[C@@H](CCCCN)C(=O)N[C@@H](CCCCN)C(=O)N[C@@H](CCC(N)=O)C(=O)N[C@@H](CCCNC(=N)N)C(=O)N[C@@H](CCC(=O)O)C(=O)N[C@@H](CCC(N)=O)C(=O)N[C@@H](C)C(=O)N[C@@H](CCC(=O)O)C(=O)N[C@H](C(=O)N[C@@H](CC(N)=O)C(=O)N[C@@H](CCC(=O)O)C(=O)N[C@@H](CCC(N)=O)C(=O)N[C@H](C(=O)N[C@@H](CC(C)C)C(=O)N[C@@H](C)C(=O)N[C@@H](CCC(N)=O)C(=O)N[C@H](C(N)=O)C(C)C)[C@@H](C)CC)[C@@H](C)O)[C@@H](C)CC)[C@@H](C)CC)C(C)C)C(C)C [compound 56] (Ac-IVLSLD[dV]PIKLK([γGlu-C16 diacid])KILLEQEKQKKQREQAETNEQILAQV-NH2) | 0.3 | 3 | > 250 |
| CC[C@H](C)[C@H](NC(C)=O)C(=O)N[C@H](C(=O)N[C@@H](CC(C)C)C(=O)N[C@@H](CO)C(=O)N[C@@H](CC(C)C)C(=O)N[C@@H](CC(=O)O)C(=O)N[C@@H](C(=O)N1CCC[C@H]1C(=O)N[C@H](C(=O)N[C@@H](CCCCN)C(=O)N[C@@H](CC(C)C)C(=O)N[C@@H](CCCCNC(=O)CC[C@H](NC(=O)CCCCCCCCCCCCCCCCC(=O)O)C(=O)O)C(=O)N[C@@H](CCCCN)C(=O)N[C@H](C(=O)N[C@@H](CC(C)C)C(=O)N[C@@H](CC(C)C)C(=O)N[C@@H](CCC(=O)O)C(=O)N[C@@H](CCC(N)=O)C(=O)N[C@@H](CCC(=O)O)C(=O)N[C@@H](CCCCN)C(=O)N[C@@H](CCC(N)=O)C(=O)N[C@@H](CCCCN)C(=O)N[C@@H](CCCCN)C(=O)N[C@@H](CCC(N)=O)C(=O)N[C@@H](CCCNC(=N)N)C(=O)N[C@@H](CCC(=O)O)C(=O)N[C@@H](CCC(N)=O)C(=O)N[C@@H](C)C(=O)N[C@@H](CCC(=O)O)C(=O)N[C@H](C(=O)N[C@@H](CC(N)=O)C(=O)NC1(C(=O)N[C@@H](CCC(N)=O)C(=O)N[C@H](C(=O)N[C@@H](CC(C)C)C(=O)N[C@@H](C)C(=O)N[C@@H](CCC(N)=O)C(=O)N[C@H](C(N)=O)C(C)C)[C@@H](C)CC)CCCC1)[C@@H](C)O)[C@@H](C)CC)[C@@H](C)CC)C(C)C)C(C)C [compound 135] (Ac-IVLSLD[dV]PIKLK([γGlu-C18 diacid])KILLEQEKQKKQREQAETN[Ac5c]QILAQV-NH2) | 0.19 | 15 | > 250 |

Source: patent US20260001928A1 (CORTERIA PHARMACEUTICALS, priority 2022, published 2026)
